Assay results as given in publication PMC6429710, “Structure–activity relationships in a series of antiplasmodial thieno[2,3-b]pyridines” (Malaria Journal, 2019).
Read-outs that look alike come from different tables or passages of the source.

Assays:
[1] = molecular target: T1, PfGSK-3 (Plasmodium falciparum, UniProt O77344); assay: biochemical; assay type: biochemical
T1 construct: 6xHis; made in house; host or cells: Escherichia coli C41
T1 sequence (O77344 1-440): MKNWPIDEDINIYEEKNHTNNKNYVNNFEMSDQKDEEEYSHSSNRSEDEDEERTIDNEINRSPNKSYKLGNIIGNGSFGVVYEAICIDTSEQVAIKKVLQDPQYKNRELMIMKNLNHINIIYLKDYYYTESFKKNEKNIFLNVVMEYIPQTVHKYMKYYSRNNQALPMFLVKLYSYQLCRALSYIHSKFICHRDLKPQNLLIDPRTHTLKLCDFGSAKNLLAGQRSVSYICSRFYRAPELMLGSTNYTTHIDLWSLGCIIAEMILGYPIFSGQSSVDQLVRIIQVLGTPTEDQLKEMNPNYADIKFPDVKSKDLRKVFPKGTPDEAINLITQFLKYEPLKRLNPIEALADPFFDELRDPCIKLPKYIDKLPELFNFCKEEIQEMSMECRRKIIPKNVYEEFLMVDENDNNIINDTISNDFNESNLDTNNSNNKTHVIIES
Procedure: PfGSK-3 was cloned into pOPIN F expression vector [41] using ligation independent cloning (InFusion, Takara Clontech). Expression vector was transformed into Escherichia coli C41 and expression of recombinant PfGSK3-6xHis was induced by incubation with 1 mM IPTG at 16 °C overnight.
Kinase activity was measured using Kinase-Glo Plus Luminescent Kinase Assay (Promega). 20 ng recombinant GSK-3 were incubated for 30 min at 30 °C in the presence of 12 μM GS-1 peptide substrate ([…]pSEDEEE, pS stands for phosphorylated serine, Biaffin GmbH & Co KG/proteinkinase.de) and 6 μM ATP (ultra pure, Promega) in a total volume of 5 μL kinase reaction buffer (40 mM Tris/HCl pH 7.5; 20 mM MgCl2; 0.1 mg/mL BSA). Kinase reaction mix was transferred to a solid white 384 well plate (NUNC, Thermo Scientific) and kinase reaction was stopped by adding 5 μL RT Kinase-Glo reagent. After 10 min luminescence was measured in an EnVision multilabel plate reader (Perkin Elmer, integration time 0.5 s/well). […] All samples were normalized to a negative control (reaction without kinase). Data points were plotted into Graphpad Prism, normalized to a DMSO control and IC50 values were calculated using nonlinear regression.

[2] = molecular target: HsGSK-3 (Homo sapiens, UniProt P49841); assay: Kinase-Glo Plus assay for inhibition of HsGSK-3; assay type: biochemical; settings: 6 µM ATP; mean of three determinations, range in brackets
Procedure: Kinase reaction mix was transferred to a solid white 384 well plate (NUNC, Thermo Scientific) and kinase reaction was stopped by adding 5 μL RT Kinase-Glo reagent. After 10 min luminescence was measured in an EnVision multilabel plate reader (Perkin Elmer, integration time 0.5 s/well). […] All samples were normalized to a negative control (reaction without kinase). Data points were plotted into Graphpad Prism, normalized to a DMSO control and IC50 values were calculated using nonlinear regression.

[3] = Kinetic solubility by laser nephelometry; assay type: physicochemical; settings: aqueous phosphate buffer pH 7.4, 1% DMSO, 25 °C, mean ± standard deviation
Procedure: Kinetic solubility indicates the solubility of the most rapidly precipitating form. Kinetic solubilities of 1 and 4h were determined by laser nephelometry using the […] nephelometer (BMG LabTech, Ortenberg, Germany) and F-bottom transparent 96-well plates. The instrument uses red laser light (635 nm, 80% intensity), which passes through the 96-well plate and which is scattered by turbid suspensions. Each compound was measured six times at 25 °C by preparing three independent stock solutions in concentrations of 5 to 10 mM in DMSO. From each stock solution two independent dilution series were prepared. Based on preliminary experiments, dilution concentrations were chosen such that at least five to six concentrations below and above the expected point of precipitation were recorded. To the 96-well plate containing 198 μL aqueous phosphate buffer at pH 7.4, 2 μL of each dilution sample in DMSO was added and shaken for 10 s. at 700 rpm (double orbital). […] The pH was adjusted by adding sulfuric acid. First, the plates were scanned without content to quantify the background, which was later subtracted from the obtained values of each individual well. As blank, 2 μL of neat DMSO was added to the phosphate buffer. Close to the point of precipitation, particle concentration can be assumed to be proportional to the intensity of scattered light. […]

[4] = molecular target: T1, PfGSK-3; assay type: biochemical; settings: 15 µM ATP; mean of two determinations, range in brackets; read-out: IC50 [µM], PfGSK-3 (radiometric)
Procedure: Recombinant GST-PfGSK-His was expressed in Rosetta 2 (DE3) cells and purified on cobalt affinity resin as described previously. Recombinant PfGSK-3 ([…]) was assayed with 48 µM GS-1 peptide as a substrate, in 25 mM Tris–HCl pH 7.5, 10 mM MgCl2, 1 mM EGTA, 1 mM EDTA, 0.5 mg/mL BSA, 5 mM DTT, 2 µg/mL heparin, in the presence of 15 µM [γ-^32P] ATP (3000 Ci/mmol; 1 mCi/mL) (Perkin-Elmer, USA) in a final volume of 25 µL. After 30 min incubation at 30 °C, 8 µL aliquots were spotted onto 1 × 1 cm pieces of P81 phosphocellulose paper (Reaction Biology, Malvern, PA, USA) and 20 s later, the filters were washed five times (for at least 5 min each time) in a solution of 10 mL phosphoric acid/L water. Filters were rinsed in acetone and the dried filters and radioactivity was measured by Cherenkov counting. Blank values were subtracted and activities were expressed in percentage of the maximal activity, i.e. in the absence of inhibitors. Controls were performed with appropriate dilutions of dimethylsulfoxide.

Chain of HsGSK-3 (P49841 whole entry): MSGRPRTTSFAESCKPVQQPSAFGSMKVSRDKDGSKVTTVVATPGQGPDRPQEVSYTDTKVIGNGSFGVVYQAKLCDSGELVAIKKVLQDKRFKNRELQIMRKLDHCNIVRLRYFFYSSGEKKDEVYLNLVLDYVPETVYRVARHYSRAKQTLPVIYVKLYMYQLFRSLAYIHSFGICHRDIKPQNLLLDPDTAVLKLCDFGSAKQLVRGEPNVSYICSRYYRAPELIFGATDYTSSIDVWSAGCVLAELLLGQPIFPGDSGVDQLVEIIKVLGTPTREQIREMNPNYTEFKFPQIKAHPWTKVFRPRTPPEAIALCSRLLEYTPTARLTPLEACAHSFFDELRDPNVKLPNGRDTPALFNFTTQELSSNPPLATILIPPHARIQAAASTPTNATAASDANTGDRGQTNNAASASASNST

**Q.** Which IC50 ([1]; 6 µM ATP, mean of three determinations, range in brackets, read-out: IC50 [µM], PfGSK-3 (Kinase Glo Plus)) does the source give for `CN(C)CCN(C)c1ccc(-c2c(C#N)c(N)nc3sc(C(=O)c4cccc(Cl)c4)c(N)c23)c(Cl)c1` [4h] here?
**A.** The IC50 was 0.72 µM.

**Q.** And the “selectivity index plasmodial versus human GSK-3” value ([1]; Kinase Glo Plus assay, PfGSK-3 versus HsGSK-3)?
**A.** Its value is 56.

**Q.** And the IC50 [2]?
**A.** Its IC50 is 40.2 µM.

**Q.** And the “S0 pH 7.4, exp (kinetic solubility)” value [3]?
**A.** The value was 4.8 ± 0.9 µM.

**Q.** What about the IC50 [4] of the same compound?
**A.** Its IC50 is 0.184 µM.
